Where only a bound is given, the exact number is not on record here.

For orientation: AUC(0-t) means the area under the concentration-time curve up to a stated or last time point. Broadly, the Tmax is the time at which the peak concentration occurs. As usually defined, the AUC(0-inf) is total exposure, with the tail of the curve extrapolated. A low value points to less exposure. The term Cmax denotes the maximum level reached in the sampled fluid or tissue. For orientation: MRT inf means the average time that molecules of a dose stay in the body. The term half-life denotes the time in which the quantity being followed falls by half. A high value points to slow decline.

For data set [1], the target named is T1, Phospho-BTK (Y223) in NIH/3T3 BTK C481S cells (Homo sapiens, UniProt Q06187, C481S).
T1 construct: expressed in transfected cells; host or cells: NIH/3T3
T1 sequence (Q06187 whole entry C481S): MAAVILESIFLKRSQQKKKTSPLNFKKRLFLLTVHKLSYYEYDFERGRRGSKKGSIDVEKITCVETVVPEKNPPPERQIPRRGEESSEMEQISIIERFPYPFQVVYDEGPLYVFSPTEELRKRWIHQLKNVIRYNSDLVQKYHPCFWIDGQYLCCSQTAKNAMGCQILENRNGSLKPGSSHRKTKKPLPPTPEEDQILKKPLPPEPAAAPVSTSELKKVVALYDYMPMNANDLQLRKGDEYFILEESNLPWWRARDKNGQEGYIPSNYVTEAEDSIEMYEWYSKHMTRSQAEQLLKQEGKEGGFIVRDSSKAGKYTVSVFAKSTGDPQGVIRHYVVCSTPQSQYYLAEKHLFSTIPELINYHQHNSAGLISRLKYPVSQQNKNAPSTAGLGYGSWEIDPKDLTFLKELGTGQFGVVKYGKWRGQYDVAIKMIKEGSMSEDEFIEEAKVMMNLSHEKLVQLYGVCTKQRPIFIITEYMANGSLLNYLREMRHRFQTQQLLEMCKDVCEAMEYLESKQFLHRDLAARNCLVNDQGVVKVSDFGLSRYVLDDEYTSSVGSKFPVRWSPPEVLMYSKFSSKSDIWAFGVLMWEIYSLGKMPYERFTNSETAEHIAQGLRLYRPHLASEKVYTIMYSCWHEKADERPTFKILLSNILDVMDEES
Kind of data set: Phospho-BTK (Y223) assay, NIH/3T3 BTK C481S cells. It counts as cell-based. As to conditions: phospho-BTK Y223, NIH/3T3 BTK C481S cells; read-out: NIH/3T3 BTK-C481S pBTK IC50. The procedure:
(§1) (5) Phospho-BTK (Y223) Assay The Adherent Cells Protocol: Day 1: • 1. […] The plate was incubated overnight at 37° C., 5% CO2. Day 2: • 1. 3-fold compound dilution was prepared, and dispensed 50 μL into 100 μL cell culture. 0.5% DMSO was used as positive control of the cell growth. • 2. The plate was incubated at 37° C., 5% CO2 for 0.5 h. • 3. 50 μL of 1 mM Na3VO4 was added, and incubated at 37° C., 5% CO2 for 2 h. • 4. During the incubation, the following reagents were prepared: 1× supplemented lysis buffer: 3 vol ddH2O+1 vol 4× Lysis buffer+100× Blocking reagent. p-BTK (Y223) cryptate-antibody and p-BTK (Y223) d2-antibody working solution: 1 volume of the stock solution of each antibody frozen aliquot (stored at)−20° was added into 19 volumes of the detection buffer (stored at) 4°. • 5. At the end of the incubation, the plate was flicked to remove the medium, then added 50 μL of 1× supplemented lysis buffer, and incubated at RT for 30 min, with 500 rpm shaking. • 6. The lysate was homogenized by pipetting up and down, and transferred 16 μL to a 384-well microplate. 1× supplemented lysis buffer was used as blank control. • 7. 4 μL of premixed antibody working solutions (cryptate Ab:d2 Ab=1:1) was added. The plate was covered with a plate sealer. • 8. Incubated at RT overnight. […] Data Analysis:
(§2) The IC50 value was calculated with GraphPad Prism 7.0.
(§3) The IC50 of the compounds for phosphorylating BTK Y223 was fit using the following formula.

Another data set deals with T2, ITK (Homo sapiens, UniProt Q08881).
T2 construct: purchased Carna 08-181
T2 sequence (Q08881 1-620): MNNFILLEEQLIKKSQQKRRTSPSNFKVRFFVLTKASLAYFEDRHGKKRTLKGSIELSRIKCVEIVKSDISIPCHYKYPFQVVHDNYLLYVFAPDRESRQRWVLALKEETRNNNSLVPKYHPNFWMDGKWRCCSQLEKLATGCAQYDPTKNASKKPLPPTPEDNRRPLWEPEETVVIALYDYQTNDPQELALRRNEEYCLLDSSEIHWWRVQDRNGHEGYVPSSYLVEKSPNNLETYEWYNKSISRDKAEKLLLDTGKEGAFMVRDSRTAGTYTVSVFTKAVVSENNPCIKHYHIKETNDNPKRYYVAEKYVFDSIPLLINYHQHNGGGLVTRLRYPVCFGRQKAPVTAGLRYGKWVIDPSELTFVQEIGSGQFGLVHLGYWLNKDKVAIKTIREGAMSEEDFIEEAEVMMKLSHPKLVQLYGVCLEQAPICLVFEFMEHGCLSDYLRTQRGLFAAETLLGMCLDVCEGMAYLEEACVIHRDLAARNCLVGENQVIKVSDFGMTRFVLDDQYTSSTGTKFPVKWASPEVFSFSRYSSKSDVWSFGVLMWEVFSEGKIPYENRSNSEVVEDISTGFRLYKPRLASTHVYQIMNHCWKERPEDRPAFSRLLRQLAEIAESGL
In words: ITK kinase inhibition test (HTRF). It counts as biochemical. As for the experimental part:
(4) BTK C481S and ITK Kinase Inhibition Test
Reagents and materials: BTK C481S (Carna, catalog number: 08-547), ITK (Carna, catalog number: 08-181). […].
Kinase Assay: Stock solution of the test compounds were prepared. The final concentration of DMSO in the kinase detection system was not exceed 1%. All of the procedures were carried out on ice, and the total volume of the reaction is 10 μL. Compound (4 μL), substrate and ATP (4 μL), and kinase (2 μL) were added to the wells of a 384-well plate in sequence, shaked for 30 sec, and reacted at room temperature for a proper time. Then, the resection was stopped by adding the detection reagents. The reaction mixture was reacted at room temperature for 1 hr, and detected with Microplate Reader. […].

In a further data set the target is T3, BTK C481S (Homo sapiens, UniProt Q06187, C481S).
T3 construct: purchased Carna 08-547
T3 sequence (Q06187 whole entry C481S): as the sequence (Q06187 whole entry C481S) above
Kind of data set: BTK C481S kinase inhibition test (HTRF). It counts as biochemical. As for the experimental part: Kinase Assay: Stock solution of the test compounds were prepared. The final concentration of DMSO in the kinase detection system was not exceed 1%. All of the procedures were carried out on ice, and the total volume of the reaction is 10 μL. Compound (4 μL), substrate and ATP (4 μL), and kinase (2 μL) were added to the wells of a 384-well plate in sequence, shaked for 30 sec, and reacted at room temperature for a proper time. Then, the resection was stopped by adding the detection reagents. The reaction mixture was reacted at room temperature for 1 hr, and detected with Microplate Reader.
(Time-resolved FRET reads energy transfer from a long-lived donor to a nearby acceptor.)

Data set [2] deals with T4, Phospho-BTK (Y223) in NIH/3T3 BTK WT cells (Homo sapiens, UniProt Q06187).
T4 construct: expressed in transfected cells; host or cells: NIH/3T3
T4 sequence (Q06187 whole entry): as the sequence (Q06187 whole entry C481S) above, with S481C counted along it
In words: Phospho-BTK (Y223) assay, NIH/3T3 BTK WT cells. The class given is cell-based. As to conditions: phospho-BTK Y223, NIH/3T3 BTK WT cells; read-out: NIH/3T3 BTK-WT pBTK IC50. The procedure:
as §1, §2, §3

The nature of data set [3]: Pharmacokinetics and brain distribution study after a single oral administration.
From the text: (6) Pharmacokinetics and Brain Distribution Study in Male Sprague Dawley Rats Following a Single Oral Administration
This study is designed to evaluate the pharmacokinetics and brain distribution of compounds disclosed herein in male Sprague Dawley Rat following a single Oral administration.
The animals were fasted overnight from 18:00 p.m. before the dosing day, and fed at 4 hr post-dose. All animals were free access to water during the study. Blood, CSF and brain were collected after each occasion of dosing at 0.5, 1, 2, and 8 hr. Blood samples (˜0.25 mL per time-point) were collected via jugular venous sinus puncture and placed in K2EDTA-containing tubes. Immediately following blood collection, the samples were inverted several times and held on wet ice before centrifugation. All the samples were centrifuged within 30 min of collection under refrigeration (set to maintain 4° C. for 5 min at 6000 rpm) to obtain plasma. The CSF samples (about 100 μL) were collected into tubes via puncture of the cisterna magna. The brain samples were rinsed with saline, drained with filter paper and removed with blood vessels, then weighted and recorded. 5-fold of the homogenate solvent (30% MeOH/70% 10 mM PBS) were used for the homogenization. All the samples were stored at −80° C., or lower until being analyzed with LC-MS/MS. Concentrations of the compounds disclosed herein in each matrix were used for PK analysis by non-compartmental method using WinNonlin.
The conditions of data set [4]: male, Sprague-Dawley, rat, in vivo.
The nature of another data set: in vivo. As to conditions: male, Sprague-Dawley, rat.
In the next data set the target is T5, BTK (Homo sapiens, UniProt Q06187).
T5 construct: purchased Invitrogen PR5442A
T5 sequence (Q06187 whole entry): as the sequence (Q06187 whole entry C481S) above, with S481C counted along it
Kind of data set: Kinase inhibition test (HTRF), BTK. The class given is biochemical. Conditions: 1 nM BTK, 20 μM ATP. As for the experimental part: (1) Kinase Inhibition Test
• 1) Compound dilution: The test compounds were dissolved in DMSO to make a 10 mM stock solution.

Setting [5] is: male SD rat, 10 mg/kg oral, CSF.
Setting [6] is: male SD rat, 10 mg/kg oral, brain.
Where [7] appears, read: male SD rat, 10 mg/kg oral, plasma.
The mark [8] stands for this setting: male, Sprague Dawley, rat, CSF, po, 10 mg/kg.
Where [9] appears, read: male, Sprague Dawley, rat, brain, po, 10 mg/kg.
Where [10] appears, read: male, Sprague Dawley, rat, plasma, po, 10 mg/kg.

As to `C=CC(=O)N1CCC[C@@H](c2cn(-c3ccc(Oc4ccccc4)cc3)c3c(N)ncnc23)C1` [Example 3, (S)-1-(3-(4-amino-5-(4-phenoxyphenyl)-5H-pyrrolo[3,2-d]pyrimidin-7-yl)piperidin-1-yl)prop-2-en-1-one], the IC50 turned out to be 502 nM in data set [1], 139 nM on ITK, 10.7 nM on BTK C481S and 6.62 nM in data set [2].
With `C=CC(=O)N1CCC[C@@H](c2nn(-c3ccc(Oc4ccccc4)cc3)c3c(N)ncnc23)C1` [Example 5, (R)-1-(3-(7-amino-1-(4-phenoxyphenyl)-1H-pyrazolo[4,3-d]pyrimidin-3-yl)piperidin-1-yl)prop-2-en-1-one], the IC50 in data set [1] was 663 nM; against ITK it was 619 nM; on BTK C481S it was 6.02 nM; in data set [2], 5.48 nM.
Take `C=CC(=O)N1CCC[C@H](c2nn(-c3ccc(Oc4ccccc4)cc3)c3c(N)ncnc23)C1` [Example 6, (S)-1-(3-(7-amino-1-(4-phenoxyphenyl)-1H-pyrazolo[4,3-d]pyrimidin-3-yl)piperidin-1-yl)prop-2-en-1-one]: the IC50 in data set [1] is above 1000 nM; at ITK, 4380 nM; on BTK C481S, 16.1 nM; in data set [2], 18.7 nM.
In the case of `C=CC(=O)N1CCC[C@@H](c2nc(-c3ccc(Oc4ccccc4)cc3)c3c(N)nccn23)C1` [Example 7, (R)-1-(3-(8-amino-1-(4-phenoxyphenyl)imidazo[1,5-a]pyrazin-3-yl)piperidin-1-yl)prop-2-en-1-one], the IC50 in data set [1] worked out at 162 nM. In data set [3] (setting [5]), the “Cmax, CSF” value worked out at 0.478 ng/mL. Further, the “Cmax, Brain” value in data set [3] (setting [6]) is reported as 18 ng/mL. In data set [3] (setting [7]), the “Cl_pred, Plasma” value was 586 and the “Vz_pred, Plasma” value is on record as 85.5 L/kg. Also, in data set [3] (setting [8]), the AUC(0-t) was 0.119 ng·h/mL and the Tmax worked out at 30 min. Further, in data set [3] (setting [9]), the AUC(0-t) was 16.4 ng·h/mL and the Tmax was 30 min. In data set [3] (setting [10]), this compound yielded an AUC(0-inf) of 285 ng·h/mL, an AUC(0-t) of 275 ng·h/mL, a Cmax of 117 ng/mL and an MRT inf of 2.03 h. For the same compound, in data set [3] (setting [10]), the Tmax turned out to be 30 min and the half-life is 101 min. Also, the IC50 against ITK was found to be 21.9 nM. Besides, on BTK C481S, the IC50 was 2.46 nM. For the same compound, the IC50 in data set [2] was found to be 7.36 nM.
In data set [4], `C=CC(=O)N1CCC[C@@H](c2nc(-c3ccc(Oc4ccccc4)cc3)c3c(N)ncnn23)C1` [Example 8, (R)-1-(3-(4-amino-5-(4-phenoxyphenyl)imidazo[5,1-f][1,2,4]triazin-7-yl)piperidin-1-yl)prop-2-en-1-one] showed an F of 16.0%. The AUC(0-t) came out at 255 ng·h/mL in the data set “in vivo” (iv, 0.5 mg/kg) and 820 ng·h/mL in “in vivo” (po, 10 mg/kg). Moreover, the Cmax in “in vivo” (iv, 0.5 mg/kg) came to 1120 ng/mL; in “in vivo” (po, 10 mg/kg), 348 ng/mL. For the same compound, the time of peak concentration (Tmax) in “in vivo” (po, 10 mg/kg) was found to be 20 min. The IC50 is 291 nM in data set [1]; 172 nM on ITK; 3.85 nM against BTK C481S; below 1 nM against BTK; 4.86 nM in data set [2].
For `C=CC(=O)N1CCC[C@@H](n2nc(-c3ccc(Oc4ccccc4)cc3)c3c(N)ncnc32)C1` [Ibrutinib, reference compound], the “Cmax, CSF” value in data set [3] (setting [5]) is listed as 0.35 ng/mL. For the same compound, the “Cmax, Brain” value in data set [3] (setting [6]) was 25.4 ng/mL. This compound came in with an AUC(0-t) in data set [3] (setting [8]) of 0.0875 ng·h/mL. In data set [3] (setting [10]), the total exposure AUC(0-inf) was 666 ng·h/mL, the AUC(0-t) came out at 626 ng·h/mL and the MRT inf worked out at 2.41 h.
